Legend:
[1] = target: cholesterol biosynthesis in which HMG-CoA reductase serves as a rate limiting enzyme; test: Test A: Inhibition of cholesterol biosynthesis from acetate in vitro; type: biochemical, male Wistar rat; settings: for Relative activities by Test A: based on the activities of CS-514 by Test A being evaluated to be 1
Experimental: Enzyme solution was prepared from liver of male Wistar rat billialy connulated and discharged bile for over 24 hours. Liver was cut out at mid-dark and microsome and supernatant fraction which was precipitable with 40-80% of solution of ammonium sulfate (sup fraction) were prepared from liver homogenate according to the modified method of Knauss et. al.; Kuroda, M., et. al., Biochim. Biophys. Acta, 489, 119 (1977). For assay of cholesterol biosynthesis, microsome (0.1 mg protein) and sup fraction (1.0 mg protein) were incubated for 2 hours at 37° C. in 200 μl of the reaction mixture containing ATP; 1 mM, Glutathione; 6 mM, Glucose-1phosphate; 10 mM, […]; 0.25 mM, NADP; 0.25 mM, CoA; 0.04 mM and 0.2 mM [2-14C]sodium acetate (0.2 μCi) with 4 μl of test compound solution dissolved in water or dimethyl sulfoxide. To stop reaction and saponify, 1 ml of 15% EtOH-KOH was added to the reactions and heated at 75° C. for 1 hour. Nonsaponifiable lipids were extracted with petroleum ether and incorporated ^14 C radioactivity was counted. Inhibitory activity of compounds was indicated with IC50.

[2] = tested on: cholesterol biosynthesis in Hep G2 cells; test: Test B-1: Inhibition of cholesterol biosynthesis in culture cells (Hep G2); type: cell-based; settings: Homo sapiens, HepG2, 100×10^-9 M/l, [2-14C]sodium acetate added at 0 hr, read-out: Inhibition activities by Test B-1
Experimental: Hep G2 cells at over 5th passage were seeded to 12 well plates and incubated with Dulbecco's modified Eagle (DME) medium containing 10% of fetal bovine serum (FBS) at 37° C., 5% CO2 until cells were confluent for about 7 days. Cells were exposed to the DME medium containing 5% of lipoprotein deficient serum (LpDS) prepared by ultracentrifugation method for over 24 hours. Medium was changed to 0.5 ml of fresh 5% LpDS containing DME before assay and 10 μl of test compound solution dissolved in water or DMSO were added. 0.2 μCi of [2-^14 C]sodium acetate (20 μl) was added at 0 hr(B-1) or 4 hrs(B-2) after addition of compounds. After 4 hrs further incubation with [2-^14 C] sodium acetate, medium was removed and cells were washed with phosphate buffered saline (PBS) chilled at 4° C. Cells were scraped with rubber policeman and collected to tubes with PBS and digested with 0.2 ml of 0.5 N KOH at 37° C. Aliquot of digestion was used for protein analysis and remaining was saponified with 1 ml of 15% EtOH-KOH at 75° C. for 1 hour. Nonsaponifiable lipids were extracted with petroleum ether and ^14 C radioactivity was counted. Counts were revised by cell protein and indicated with DPM/mg protein. Inhibitory activity of compounds was indicated with IC50.
With respect to the compounds of the present invention, the inhibitory activities against the cholesterol biosynthesis in which HMG-CoA reductase serves as a rate limiting enzyme, were measured by the above Test A and B. The results are shown in Tables 2 and 3.
In Table 3, the inhibition activities of the test compounds at a concentration of 100×10^-9 M/l, are shown.

[3] = tested on: cholesterol biosynthesis; test: Test C: Inhibition of cholesterol biosynthesis in vivo; set-up: species or system male Sprague-Dawley rats; settings: oral, 0.2 mg/kg
Experimental: Male Sprague-Dawley rats weighing about 150 g were fed normal Purina chow diet and water ad libitum, and exposed to 12 hours light/12 hours dark lighting pattern
(2:00 PM -2:00 AM dark) prior to use for in vivo inhibition test of cholesterol biosynthesis. Animals were separated groups consisting of five rats as to be average mean body weight in each groups. Test compounds at dosage of 0.02-2.0 mg/kg body weight (0.4 ml/100 g body weight), were dissolved in water or suspended in 0.5% methyl cellulose and orally administered at 2-3 hours before mid-dark (8:00 PM), while cholesterol biosynthesis reaches to maximum in rats. As control, rats were orally administered only water or vehicle. At 90 minutes after sample administration, rats were injected intraperitoneally with 10 μCi of [2-^14 C]sodium acetate at volume of 0.2 ml per one. 2 Hours later, blood samples were obtained and serum were separated immediately. Total lipids were extracted according to the method of Folch et al. and saponified with EtOH-KOH. Nonsaponifiable lipids were extracted with petroleum ether and radio activity incorporated into nonsaponifiable lipids was counted.
Inhibitory activity was indicated as percent decrease of counts in testing groups (DPM/2 ml serum/2 hours) from that in control group.

[4] = tested on: ICR male mice; test: Test D: Acute toxicity; type: in vivo; settings: oral, 0.5% CMC suspension, group of three mice; dose not given
Experimental: A 0.5% CMC suspension of a test compound was orally administered to ICR male mice (group of three mice). The acute toxicity was determined based on the mortality after seven days.

Row | SMILES | IC50 ([1]; rat liver microsome and sup fraction, [2-14C]sodium acetate, 2 hours at 37° C.) | inhibition at 0.1 µM [2] | percent decrease of counts relative to the control group (DPM/2 ml serum/2 hours) [3] | Relative activities by Test A [1] | acute toxicity, mortality after seven days [4]
1 | CC[C@H](C)C(=O)O[C@H]1C[C@H](O)C=C2C=C[C@H](C)[C@H](CC[C@@H](O)C[C@@H](O)CC(=O)O)[C@H]21 [CS-514, reference compound] | 9 nM | 18.4% | 34% |  | 
2 | CCOC(=O)CC(O)CC(O)/C=C/c1c(C(C)C)nc2onc(C)c2c1-c1ccc(F)cc1 (stereo not drawn) [Compound I-1-1] |  | 50.1% |  | 1.6 | 
3 | CCOC(=O)CC(O)CC(O)/C=C/c1c(C(C)C)nc2onc(-c3ccccc3)c2c1-c1ccc(F)cc1 (stereo not drawn) [Compound I-1-2] |  | 57.3% |  |  | 
4 | Cc1noc2nc(C(C)C)c(/C=C/C(O)CC(O)CC(=O)O)c(-c3ccc(F)cc3)c12 (stereo not drawn) [Compound I-5-1, Sodium (E)-7-[4'-(4"-fluorophenyl)-3'-methyl-6'-(1"-methylethyl)isoxazolo[5,4-b]pyridin-5'-yl]-3,5-dihydroxyhept-6-enoate] |  |  |  | 1.3 | 
5 | CC(C)c1nc2onc(-c3ccccc3)c2c(-c2ccc(F)cc2)c1/C=C/C(O)CC(O)CC(=O)O (stereo not drawn) [Compound I-5-2] |  | 43.2% | 34.3% | 0.6 | only one animal of the three animals died
6 | CCOC(=O)CC(=O)CC(O)/C=C/c1c(C(C)C)nc2onc(C)c2c1-c1ccc(F)cc1 (stereo not drawn) [Compound II-1, Ethyl (E)-7-[4'-(4"-fluorophenyl)-3'-methyl-6'-(1"-methylethyl)isoxazolo[-5,4-b]pyridin-5-yl]-5'-hydroxy-3-oxohepto-6-enoate] |  | 52.6% |  |  | 
